This is an account of results in ChEMBL document CHEMBL4406828, “Conformational restriction design of thiophene-biphenyl-DAPY HIV-1 non-nucleoside reverse transcriptase inhibitors” (Eur J Med Chem, 2019).

Data set [1] deals with Human immunodeficiency virus type 1 reverse transcriptase (Human immunodeficiency virus 1, UniProt Q72547). Description: Inhibition of recombinant HIV-1 reverse transcriptase p66/p51 incubated for 40 mins by picogreen dye based spectrofluorometric assay.
A short description of data set [2]: Cytotoxicity against human MT4 cells assessed as reduction in cell viability incubated for 4 days by MTT assay. Type of data set: cell-based.
For data set [3], the system named is Human immunodeficiency virus 1. Description: Antiviral activity against HIV-1 harboring reverse transcriptase K103N mutant infected in human MT4 cells assessed as reduction in virus-induced cytopathic effect incubated for 4 days by MTT assay. Format: functional, organism-based. The note with it: Human immunodeficiency virus 1, MT4, 96 h.
The test system of data set [4] is Human immunodeficiency virus 1. The data set is described as follows: Antiviral activity against HIV-1 harboring reverse transcriptase L100I mutant infected in human MT4 cells assessed as reduction in virus-induced cytopathic effect incubated for 4 days by MTT assay. As to conditions: Human immunodeficiency virus 1, MT4, 96 h. Type of data set: functional, organism-based.

Data set [5] relates to Human immunodeficiency virus 1. The data set is described as follows: Antiviral activity against HIV-1 harboring reverse transcriptase Y181C mutant infected in human MT4 cells assessed as reduction in virus-induced cytopathic effect incubated for 4 days by MTT assay. Type of data set: functional, organism-based. As to conditions: Human immunodeficiency virus 1, MT4, 96 h.

Data set [6] deals with Human immunodeficiency virus 1. The data set is described as follows: Antiviral activity against HIV-1 harboring reverse transcriptase E138K mutant infected in human MT4 cells assessed as reduction in virus-induced cytopathic effect incubated for 4 days by MTT assay. As to conditions: Human immunodeficiency virus 1, MT4, 96 h. Type of data set: functional, organism-based.

Structures are written as SMILES.

Consider `Cc1cc(-c2ccc(Oc3nc(Nc4ccc(C#N)cc4)nc4ccsc34)cc2C)ccc1C#N`, for which, in data set [1], the IC50 was found to be 42 nM.
On the same count and under the same terms, in the case of `Cc1cc(-c2ccc(C#N)cc2F)ccc1Oc1nc(Nc2ccc(C#N)cc2)nc2ccsc12` it was 62 nM; in that of `N#Cc1ccc(Nc2nc(Oc3ccc(-c4ccc(C#N)c(Cl)c4)cc3Cl)c3sccc3n2)cc1`, 31 nM.
As for `Cc1cc(C#N)ccc1-c1ccc(Oc2nc(Nc3ccc(C#N)cc3)nc3ccsc23)cc1C`, the half-inhibitory concentration (IC50) in data set [1] is 27 nM.
Same read-out and setting: to `N#Cc1ccc(Nc2nc(Oc3ccc(-c4ccc(C#N)cc4F)cc3)c3sccc3n2)cc1` belongs 65 nM.
Turning to `O=C1Nc2ccc(Cl)cc2[C@@](C#CC2CC2)(C(F)(F)F)O1` [EFAVIRENZ], the CC50 at 96 h in data set [2] was greater than 6340 nM.
Turning to `Cc1cc(C#N)cc(C)c1Oc1nc(Nc2ccc(C#N)cc2)nc(N)c1Br` [ETRAVIRINE], the 50% cytotoxic concentration (CC50) at 96 h in data set [2] was greater than 4610 nM.
Consider `Cc1ccnc2c1NC(=O)c1cccnc1N2C1CC1` [NEVIRAPINE], for which the EC50 in data set [3] was greater than 9550 nM; in data set [4], 1990 nM; in data set [5] it was greater than 15000 nM; in data set [6], 200 nM. Also, the half-maximal cytotoxic concentration (CC50) at 96 h in data set [2] is greater than 15000 nM.
